This is an account of results in patent US9296703B2, “Substituted N-(3-(pyrimidin-4-yl)phenyl)acrylamide analogs as tyrosine receptor kinase BTK inhibitors” (University of Utah Research Foundation, priority 2012, dated 2016).

Each structure is given as a SMILES string.

The target of this test is recombinant full-length human BTK kinase (Homo sapiens (Human), UniProt Q06187). Nature of the test: BTK kinase assay: ADP generation assay (ADP-Glo). It is filed as biochemical. To be noted: 60 nM BTK, 1.6 μM ATP, 20 μM MBP substrate, 60 min at room temperature. The method, then:
The primary assay for compound inhibitory activity was the ADP generation assay described herein. Test compounds were diluted to desired concentrations in kinase reaction buffer and briefly incubated with recombinant full-length human BTK kinase with a (His)6 tag (81.3 kDa; Invitrogen Corporation, Carlsbad, Calif.). The assay as described is based on volumes used in a standard 384 well format using solid, white-wall plates. The reaction was subsequently initiated by the addition of ATP and myelin basic protein (MBP) substrate (Millipore Corporation, Waltham, Mass.). Composition of the assay reaction mixture ([…]) was: 5% v/v DMSO, 60 nM BTK, 1.6 μM ATP, and 20 μM MBP substrate. […] Luminescence was measured on an EnVision® microplate reader (PerkinElmer). The amount of luminescence from each reaction is directly correlated with BTK kinase activity. Percent inhibition and IC50 values were calculated by comparing enzyme activity in drug-treated wells to the appropriate controls.
IC50 values are determined using GraphPad Prism 5 software. […]
Activity (IC50) was determined in the BTK assays describe herein above, i.e. either the ADP generation assay and/or the time-resolved FRET assay, and the data are shown in Table III. […]

recombinant full-length human BTK kinase, sequence (Q06187 whole entry): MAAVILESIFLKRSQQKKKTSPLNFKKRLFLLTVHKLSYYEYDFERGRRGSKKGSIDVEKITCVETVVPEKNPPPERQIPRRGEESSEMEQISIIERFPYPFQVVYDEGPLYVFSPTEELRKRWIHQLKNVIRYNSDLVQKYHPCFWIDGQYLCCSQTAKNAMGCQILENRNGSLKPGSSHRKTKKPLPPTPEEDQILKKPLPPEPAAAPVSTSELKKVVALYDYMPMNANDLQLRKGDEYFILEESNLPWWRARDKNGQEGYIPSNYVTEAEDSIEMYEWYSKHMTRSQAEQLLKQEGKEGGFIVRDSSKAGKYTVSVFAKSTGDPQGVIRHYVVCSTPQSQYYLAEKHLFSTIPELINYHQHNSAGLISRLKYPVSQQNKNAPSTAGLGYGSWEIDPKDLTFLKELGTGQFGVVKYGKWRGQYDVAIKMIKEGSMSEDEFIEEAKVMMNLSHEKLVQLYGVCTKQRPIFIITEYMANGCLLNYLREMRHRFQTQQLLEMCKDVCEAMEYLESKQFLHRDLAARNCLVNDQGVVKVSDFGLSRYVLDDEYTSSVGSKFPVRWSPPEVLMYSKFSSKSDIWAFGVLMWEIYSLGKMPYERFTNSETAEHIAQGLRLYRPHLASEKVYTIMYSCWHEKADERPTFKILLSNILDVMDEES

Consider `C=CC(=O)Nc1cccc(-c2nc(Nc3ccc(N4CCOCC4)c(OP(=O)(OC(C)C)OC(C)C)c3)ncc2Cl)c1` [Compound 2, 5-((4-(3-acrylamidophenyl)-5-chloropyrimidin-2-yl)amino)-2 - morpholinophenyl diisopropyl phosphate], for which the IC50 amounted to 3.58 µM.

On to `C=CC(=O)Nc1cccc(-c2nc(Nc3ccc(N4CCOCC4)c(O)c3)ncc2Cl)c1` [Compound 1, N-(3-(5-chloro-2-((3-hydroxy-4-morpholinophenyl)amino)pyrimidin-4-yl)phenyl)acrylamide], for which the IC50 was 0.004 µM.
